Results from US20220274954A1, “SUBSTITUTED N-PHENYL-N-AMINOUARCILS AND SALTS THEREOF AND USE THEREOF AS HERBICIDAL AGENTS” (Bayer Aktiengesellschaft, priority 2019, published 2022).

How the values were obtained:
Type in all cases: in vivo
Triticum aestivum = assay: Post-emergence crop plant compatibility; conditions: application rate 1.25 g/ha
Method: (§1) Seeds of monocotyledonous and dicotyledonous weeds and crop plants were placed in sandy loam in plastic or wood-fiber pots, covered with soil and cultivated in a greenhouse under controlled growth conditions. 2 to 3 weeks after sowing, the test plants were treated at the one-leaf stage. The compounds of the invention, formulated in the form of wettable powders (WP) or as emulsion concentrates (EC), were then sprayed onto the green parts of the plants as aqueous suspension or emulsion with addition of 0.5% additive at a water application rate of […] (converted). After the test plants had been kept in the greenhouse under optimum growth conditions for about 3 weeks, the activity of the preparations was rated visually in comparison to untreated controls. For example, 100% activity=the plants have died, 0% activity=like control plants.
(§2) Here, the observed effects on selected crop plants are stated in comparison to the untreated controls (values in %).

Alopecurus myosuroides = assay: Post-emergence herbicidal action
Method: as §1, with “plants. Tables A1 to A14 below show the effects of selected compounds of the general formula (I) according to Tables I.1 to I.34 on various harmful plants and at an application rate corresponding to 20 g/ha and less, which were obtained by the experimental procedure mentioned above.” for “plants.”

Pharbitis purpurea = assay: Post-emergence herbicidal action
Method: as §1, with “plants. Tables A1 to A14 below show the effects of selected compounds of the general formula (I) according to Tables I.1 to I.34 on various harmful plants and at an application rate corresponding to 20 g/ha and less, which were obtained by the experimental procedure mentioned above.” for “plants.”

Echinochloa crus-galli = assay: Post-emergence herbicidal action
Method: as §1, with “plants. Tables A1 to A14 below show the effects of selected compounds of the general formula (I) according to Tables I.1 to I.34 on various harmful plants and at an application rate corresponding to 20 g/ha and less, which were obtained by the experimental procedure mentioned above.” for “plants.”

Veronica persica = assay: Post-emergence herbicidal action
Method: as §1, with “plants. Tables A1 to A14 below show the effects of selected compounds of the general formula (I) according to Tables I.1 to I.34 on various harmful plants and at an application rate corresponding to 20 g/ha and less, which were obtained by the experimental procedure mentioned above.” for “plants.”

Amaranthus retroflexus = assay: Post-emergence herbicidal action
Method: as §1, with “plants. Tables A1 to A14 below show the effects of selected compounds of the general formula (I) according to Tables I.1 to I.34 on various harmful plants and at an application rate corresponding to 20 g/ha and less, which were obtained by the experimental procedure mentioned above.” for “plants.”

Abutilon theophrasti = assay: Post-emergence herbicidal action
Method: as §1, with “plants. Tables A1 to A14 below show the effects of selected compounds of the general formula (I) according to Tables I.1 to I.34 on various harmful plants and at an application rate corresponding to 20 g/ha and less, which were obtained by the experimental procedure mentioned above.” for “plants.”

Viola tricolor = assay: Post-emergence herbicidal action
Method: as §1, with “plants. Tables A1 to A14 below show the effects of selected compounds of the general formula (I) according to Tables I.1 to I.34 on various harmful plants and at an application rate corresponding to 20 g/ha and less, which were obtained by the experimental procedure mentioned above.” for “plants.”

Matricaria inodora = assay: Post-emergence herbicidal action
Method: as §1, with “plants. Tables A1 to A14 below show the effects of selected compounds of the general formula (I) according to Tables I.1 to I.34 on various harmful plants and at an application rate corresponding to 20 g/ha and less, which were obtained by the experimental procedure mentioned above.” for “plants.”

Avena fatua = assay: Post-emergence herbicidal action; conditions: application rate 20 g/ha
Method: as §1, with “plants. Tables A1 to A14 below show the effects of selected compounds of the general formula (I) according to Tables I.1 to I.34 on various harmful plants and at an application rate corresponding to 20 g/ha and less, which were obtained by the experimental procedure mentioned above.” for “plants.”

Oryza sativa = assay: Post-emergence crop plant compatibility; conditions: application rate 1.25 g/ha
Method: as §1, §2

Triticum aestivum (efficacy in %) (Triticum aestivum) | Oryza sativa (efficacy in %) (Oryza sativa) | SMILES | Alopecurus myosuroides (efficacy in %) (Alopecurus myosuroides; application rate 5 g/ha) | Alopecurus myosuroides (efficacy in %) (Alopecurus myosuroides; application rate 20 g/ha) | Pharbitis purpurea (efficacy in %) (Pharbitis purpurea; application rate 5 g/ha) | Pharbitis purpurea (efficacy in %) (Pharbitis purpurea; application rate 20 g/ha) | Echinochloa crus-galli (efficacy in %) (Echinochloa crus-galli; application rate 5 g/ha) | Echinochloa crus-galli (efficacy in %) (Echinochloa crus-galli; application rate 20 g/ha) | Veronica persica (efficacy in %) (Veronica persica; application rate 5 g/ha) | Veronica persica (efficacy in %) (Veronica persica; application rate 20 g/ha) | Amaranthus retroflexus (efficacy in %) (Amaranthus retroflexus; application rate 5 g/ha) | Amaranthus retroflexus (efficacy in %) (Amaranthus retroflexus; application rate 20 g/ha) | Abutilon theophrasti (efficacy in %) (Abutilon theophrasti; application rate 5 g/ha) | Abutilon theophrasti (efficacy in %) (Abutilon theophrasti; application rate 20 g/ha) | Viola tricolor (efficacy in %) (Viola tricolor; application rate 5 g/ha) | Viola tricolor (efficacy in %) (Viola tricolor; application rate 20 g/ha) | Matricaria inodora (efficacy in %) (Matricaria inodora; application rate 5 g/ha) | Matricaria inodora (efficacy in %) (Matricaria inodora; application rate 20 g/ha) | Avena fatua (efficacy in %) (Avena fatua)
20% |  | Nn1c(C(F)(F)F)cc(=O)n(-c2cc(Sc3cccnc3OCC(=O)OC3COC3)c(Cl)cc2F)c1=O [I.1-115] | 80% | 100% | 100% | 100% | 90% | 100% | 100% | 100% | 100% | 100% | 90% | 100% | 100% | 100% | 100% | 100% | 
20% |  | N#CCOC(=O)COc1ncccc1Sc1cc(-n2c(=O)cc(C(F)(F)F)n(N)c2=O)c(F)cc1Cl [I.1-176] | 90% | 100% | 100% | 100% | 90% | 100% | 100% | 100% | 100% | 100% | 100% | 100% | 100% | 100% | 100% | 100% | 80%
20% | 0% | Nn1c(C(F)(F)F)cc(=O)n(-c2cc(Sc3cccnc3OCC(=O)OCc3ccccn3)c(Cl)cc2F)c1=O [I.1-286] | 100% | 100% | 100% |  |  |  | 100% | 100% | 100% | 100% | 100% | 100% | 100% | 100% | 100% | 100% | 80%
